In article PMC3599355, “Discovery and characterization of a highly efficient enantioselective mandelonitrile hydrolase from Burkholderia cenocepacia J2315 by phylogeny-based enzymatic substrate specificity prediction” (BMC Biotechnology, 2013):

Target: T1, BCJ2315 (Burkholderia cenocepacia, UniProt B4E7T0)
T1 construct: gene BCAL2585; full-length gene in pQE30 (BamHI/HindIII), His-tag kept, E. coli M15; 37 kDa subunit, native about 450 kDa, 12 identical subunits
Experiment: HPLC hydrolysis assay, Lineweaver-Burk
Type: biochemical
Conditions: standard assay: 100 mM sodium phosphate pH 7.0, 30 °C; mandelonitrile 0.1 to 15 mM; stereo form not stated

T1 sequence (B4E7T0 entry or part of it): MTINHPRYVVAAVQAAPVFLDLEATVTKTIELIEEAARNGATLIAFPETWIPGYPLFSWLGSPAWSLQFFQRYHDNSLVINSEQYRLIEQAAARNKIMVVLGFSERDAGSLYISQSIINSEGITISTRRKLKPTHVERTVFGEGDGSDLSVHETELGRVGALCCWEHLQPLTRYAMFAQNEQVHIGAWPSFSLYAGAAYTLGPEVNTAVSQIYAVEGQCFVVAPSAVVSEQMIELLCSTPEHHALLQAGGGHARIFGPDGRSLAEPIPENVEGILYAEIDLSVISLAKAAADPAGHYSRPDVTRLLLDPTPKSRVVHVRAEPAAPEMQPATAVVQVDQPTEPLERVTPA

N#CC(O)c1ccccc1 (stereo not shown) [mandelonitrile]
Km: 140 µM
